The results in this text go back to ChEMBL document CHEMBL1201862, “PubChem BioAssay data set” (2004).

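Protocol summary: plate cells (96-well), add compound at 5 concentrations, incubate 48 h, interpolate endpoints linearly. GI50: concentration for 50% inhibition of growth.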 The source made the active and inactive calls. Cut-off read from the data, not from the text of the source: active = GI50 up to about 1.1 µM and inactive = higher.

Among the test systems are UACC-62; K562; CAKI-1; KM12; Hs-578T; RPMI-8226; EKVX; HT-29; SNB-75; OVCAR-8; SK-MEL-28; SK-MEL-5; UO-31; HL-60; SF-268; NCI/ADR-RES; 786-0; SN12C; NCI-H226.
Common to all, as to experiment: growth of human tumour cells (NCI), 48 h

On to `COC(=O)c1c(CC(Cc2ccc3c(c2)CCCC3)C(=O)OC)ccc2c1CCCC2` (stereo not drawn), for which the GI50 in the assay with UACC-62 is > 100 µM (inactive); in the assay on K562 it was 32.9 µM (inactive); in the assay on CAKI-1, > 100 µM (inactive); in the assay on KM12, 40.3 µM (inactive); with Hs-578T it was > 100 µM (inactive); in the assay with RPMI-8226 it was 24.9 µM (inactive). Also, the GI50 was 19.5 µM (inactive) in the assay on EKVX; 24.4 µM (inactive) in the assay on HT-29; > 10 µM (inactive) with SNB-75; > 100 µM (inactive) in the assay with OVCAR-8; > 100 µM (inactive) in the assay on SK-MEL-28; 29.4 µM (inactive) with SK-MEL-5. The GI50 in the assay with UO-31 was 82.8 µM (inactive); with HL-60, 16.6 µM (inactive); in the assay on SF-268 it was 55.3 µM (inactive); with NCI/ADR-RES, > 100 µM (inactive); in the assay with 786-0, > 100 µM (inactive); in the assay with SN12C, > 100 µM (inactive).

Take `O=c1oc2ccccc2c2c1Sc1ccccc1N2`: the GI50 in the assay on UACC-62 was 50.1 µM (inactive); in the assay on K562, > 100 µM (inactive); in the assay on CAKI-1 it was > 100 µM (inactive); in the assay on KM12, 70.5 µM (inactive); with Hs-578T, > 100 µM (inactive); with RPMI-8226, 47.2 µM (inactive). The GI50 with EKVX was 62.2 µM (inactive); with HT-29 it was > 100 µM (inactive); in the assay with OVCAR-8, > 100 µM (inactive); in the assay with SK-MEL-28, > 100 µM (inactive); with SK-MEL-5, 48.9 µM (inactive); with NCI-H226, 82.4 µM (inactive). The GI50 is > 100 µM (inactive) in the assay with UO-31; > 100 µM (inactive) with HL-60; 56.6 µM (inactive) in the assay on SF-268; > 100 µM (inactive) in the assay with NCI/ADR-RES; > 100 µM (inactive) in the assay with 786-0; > 100 µM (inactive) in the assay with SN12C.

Regarding `COC(=O)c1c2c(cc3c1CC1(Cc4cc5c(c(C=O)c4C1)CCCC5)C3)CCCC2` (stereo not drawn), the GI50 was 23.5 µM (inactive) with UACC-62; 33.2 µM (inactive) in the assay on K562; 29.2 µM (inactive) in the assay with Hs-578T; > 100 µM (inactive) in the assay on RPMI-8226; 52.4 µM (inactive) with EKVX; 51.3 µM (inactive) with HT-29. The GI50 with OVCAR-8 is 87.5 µM (inactive); in the assay with SK-MEL-5, 71.4 µM (inactive); in the assay on NCI-H226, 80 µM (inactive); in the assay on UO-31 it was 0.103 µM (active); in the assay with HL-60, 30 µM (inactive); in the assay on NCI/ADR-RES it was 94.6 µM (inactive). Also, the GI50 in the assay with 786-0 was > 100 µM (inactive); in the assay on SN12C it was 70 µM (inactive).

As for `O=C1CCCC2C3CC(CN12)C1CCCCN1C3.[O-][Cl+3]([O-])([O-])O` (stereo not drawn), the GI50 in the assay with UACC-62, in the assay on CAKI-1, with KM12, with Hs-578T, with RPMI-8226 and with EKVX was > 100 µM (inactive) in each case. In addition, the GI50 with HT-29, in the assay on OVCAR-8, in the assay on SK-MEL-28, with SK-MEL-5, in the assay on NCI-H226 and with UO-31 was > 100 µM (inactive) throughout. Further, the GI50 with HL-60, in the assay with SF-268, in the assay on NCI/ADR-RES, in the assay on 786-0 and in the assay with SN12C was > 100 µM (inactive) each time.

In the case of `C=C1C(=O)O[C@H]2C[C@@H]1C(=O)CC(C)CCCC(C)=CCC[C@@]2(C)O` (stereo partly drawn), the GI50 with UACC-62, with KM12, in the assay with Hs-578T, with RPMI-8226, in the assay on EKVX and with HT-29 was > 25 µM (inactive) in each case. Besides, the GI50 in the assay with OVCAR-8, in the assay with SK-MEL-28, in the assay on SK-MEL-5, in the assay with NCI-H226, with UO-31 and in the assay on HL-60 was > 25 µM (inactive) each time. The GI50 with SF-268, with NCI/ADR-RES, in the assay on 786-0 and in the assay with SN12C was > 25 µM (inactive) each time.

On to `CC1=C2C(=O)NN=C2CCN1c1ccc(Br)cc1`, for which the GI50 in the assay on UACC-62, in the assay on CAKI-1, with KM12, in the assay with Hs-578T, in the assay with EKVX and with HT-29 was > 100 µM (inactive) each time. Also, the GI50 in the assay with SNB-75 is > 100 µM (inactive); with OVCAR-8 it was > 100 µM (inactive); in the assay on SK-MEL-28, > 100 µM (inactive); in the assay with SK-MEL-5, > 100 µM (inactive); with NCI-H226, > 100 µM (inactive); in the assay on UO-31 it was 54.3 µM (inactive). Moreover, the GI50 in the assay on HL-60 was 41.3 µM (inactive); with SF-268, > 100 µM (inactive); in the assay on NCI/ADR-RES, > 100 µM (inactive); in the assay with 786-0, > 100 µM (inactive); in the assay on SN12C, > 100 µM (inactive).

As for `Cc1ccc(Nc2nc(C)c(C(=O)CC(=O)C(=O)Nc3c(C)cccc3C(C)(C)C)s2)cc1`, the GI50 was > 100 µM (inactive) in the assay on UACC-62; > 100 µM (inactive) with K562; > 100 µM (inactive) in the assay with CAKI-1; > 100 µM (inactive) in the assay with KM12; 56 µM (inactive) in the assay with Hs-578T; > 100 µM (inactive) in the assay on RPMI-8226. For the same molecule, the GI50 in the assay on EKVX was > 100 µM (inactive); in the assay with HT-29 it was > 100 µM (inactive); in the assay with OVCAR-8, 79.3 µM (inactive); with SK-MEL-5, > 100 µM (inactive); in the assay on NCI-H226, > 100 µM (inactive); in the assay with UO-31 it was > 100 µM (inactive). In addition, the GI50 in the assay on HL-60 is > 100 µM (inactive); in the assay with SF-268, > 100 µM (inactive); in the assay on NCI/ADR-RES it was > 100 µM (inactive); in the assay on 786-0 it was 75.9 µM (inactive); in the assay with SN12C, > 100 µM (inactive).

For `Cc1nn2c(C(=O)N/N=C/c3ccc([N+](=O)[O-])cc3)c(C)nc2s1`, the GI50 is > 100 µM (inactive) with UACC-62; 94.2 µM (inactive) in the assay with K562; > 100 µM (inactive) in the assay on CAKI-1; > 100 µM (inactive) in the assay with KM12; > 100 µM (inactive) with Hs-578T; > 100 µM (inactive) in the assay on EKVX. Besides, the GI50 in the assay with HT-29 is > 100 µM (inactive); in the assay with SNB-75, 50.5 µM (inactive); in the assay on OVCAR-8, > 100 µM (inactive); with SK-MEL-28 it was > 100 µM (inactive); with SK-MEL-5, > 100 µM (inactive); in the assay with NCI-H226, > 100 µM (inactive). Moreover, the GI50 with UO-31 was 34.4 µM (inactive); in the assay on HL-60, > 100 µM (inactive); in the assay with SF-268, > 100 µM (inactive); in the assay with NCI/ADR-RES it was > 100 µM (inactive); in the assay on 786-0, > 100 µM (inactive); in the assay with SN12C it was > 100 µM (inactive).

`COCN1C(=O)[C@@H]2C[C@@H](OC/C=C/CBr)CN2C(=O)c2ccccc21`: the GI50 is 19 µM (inactive) with UACC-62; 17.4 µM (inactive) in the assay on CAKI-1; 22 µM (inactive) in the assay with KM12; 26.5 µM (inactive) with Hs-578T; 23 µM (inactive) in the assay on EKVX; 20.2 µM (inactive) in the assay on HT-29. The GI50 in the assay with SNB-75 was 10.7 µM (inactive); in the assay on OVCAR-8, 14.5 µM (inactive); in the assay with SK-MEL-28, 18.9 µM (inactive); in the assay with SK-MEL-5 it was 14.4 µM (inactive); in the assay with NCI-H226 it was 9.38 µM (inactive); in the assay on UO-31, 18.9 µM (inactive). In addition, the GI50 with HL-60 is 6.27 µM (inactive); in the assay on SF-268, 25.1 µM (inactive); with NCI/ADR-RES, 26.9 µM (inactive); in the assay with 786-0, 21.5 µM (inactive); in the assay with SN12C, 14.1 µM (inactive).

Turning to `CC1(O)C(=O)OC2CC([C@]3(O)CCC4[C@@H]5C[C@H]6O[C@]67[C@@H](O)C=CC(=O)[C@]7(C)C5CC[C@@]43C)C1(C)C2` (stereo partly drawn), the GI50 with UACC-62 was 14.9 µM (inactive); in the assay on K562, 3.6 µM (inactive); in the assay on CAKI-1, 11.8 µM (inactive); in the assay on KM12 it was 27 µM (inactive); in the assay with Hs-578T, 26.3 µM (inactive); in the assay on RPMI-8226 it was 3.24 µM (inactive). Moreover, the GI50 in the assay with EKVX is 45 µM (inactive); with HT-29, 17.1 µM (inactive); in the assay with SNB-75, 29.8 µM (inactive); in the assay with OVCAR-8, 25.1 µM (inactive); in the assay with SK-MEL-28 it was 9.35 µM (inactive); in the assay on SK-MEL-5, 16.9 µM (inactive). In addition, the GI50 with UO-31 is 22.9 µM (inactive); in the assay on HL-60, 3.52 µM (inactive); with SF-268 it was 16 µM (inactive); in the assay with NCI/ADR-RES, > 50.9 µM (inactive); in the assay with 786-0, 12.9 µM (inactive); with SN12C it was 16.5 µM (inactive).

Regarding `O=Nc1c(-c2c(O)[nH]c3ccccc23)[nH]c2ccccc12` [INDIRUBIN-3-MONOXIME], the GI50 in the assay on UACC-62 was 2.93 µM (inactive); in the assay on K562, 2.67 µM (inactive); in the assay with CAKI-1 it was 0.64 µM (active); in the assay on KM12, 0.0865 µM (active); in the assay on Hs-578T, 4.47 µM (inactive); in the assay with RPMI-8226, 3.95 µM (inactive). The GI50 was 1.9 µM (inactive) in the assay on EKVX; 7.14 µM (inactive) in the assay with HT-29; 3.88 µM (inactive) with SNB-75; 4.45 µM (inactive) with OVCAR-8; 6.9 µM (inactive) in the assay with SK-MEL-28; 3.99 µM (inactive) with SK-MEL-5. Further, the GI50 in the assay with UO-31 is 2.38 µM (inactive); in the assay on HL-60, 2.72 µM (inactive); in the assay on SF-268, 5.5 µM (inactive); in the assay on NCI/ADR-RES, 5.77 µM (inactive); with 786-0, 7.57 µM (inactive); in the assay with SN12C it was 2.98 µM (inactive).
